Drawing on patent US20240216357A1 (SICHUAN HUIYU PHARMACEUTICAL CO., LTD., priority 2021, published 2024), this text covers IC50 for 27 compounds.

One experiment has as its target LSD1 (Homo sapiens (Human), UniProt O60341). Briefly: LSD1 enzyme activity detection (HTRF). It counts as biochemical.
The next experiment concerns NCI-H1417 cells. Briefly: In vitro cell proliferation detection (CellTiter-Glo, 7 days). It counts as cell-based. A general note: Cellular ATP, detected with luciferase, serves as a proxy for viable cell number.
Where [1] appears, read: HTRF, H3K4me1 substrate, read-out: Inhibition of enzymatic activity of LSD1 IC50.
[2] abbreviates: Homo sapiens, 168 h, NCI-H1417 cells, 7 days, CellTiter-Glo, read-out: NCI-H1417 proliferation inhibition IC50.

Structures can show the parent of a compound that is named as a salt. Where two headings read alike, the source gives them in different places.

In the case of `COc1ccc(-c2c(OC)cc(N3CCC(N)CC3)nc2-c2ccc(C#N)c(F)c2)cc1C#N` [Example 93, 4-(6-(4-aminopiperidin-1-yl)-3-(3-cyano-4-methoxyphenyl)-4-methoxypyridin-2-yl)-2-fluorobenzonitrile], the IC50 is 153 nM on LSD1 (setting [1]) and 30.7 nM with NCI-H1417 cells (setting [2]).

`Cc1ccc(-c2sc(C(=O)N3C4CCC3CC(N)C4)cc2-c2ccc(C#N)c(F)c2)c(F)c1` (stereo not drawn) [Example 6, 4-(5-(3-amino-8-azabicyclo[3.2.1]octane-8-carbonyl)-2-(2-fluoro-4-methylphenyl)thiophen-3-yl)-2-fluorobenzonitrile hydrochloride]: the values for the IC50 at LSD1 (setting [1]) and in the experiment on NCI-H1417 cells (setting [2]) were 0.3 ± 0.25 nM and 3.64 nM, respectively.

Turning to `Cc1noc2cc(-c3c(-c4ccc(C#N)c(F)c4)nc(N4CCC(C)(N)CC4)n4ccnc34)c(F)cc12` [Example 149, 4-(5-(4-amino-4-methylpiperidin-1-yl)-8-(5-fluoro-3-methylbenzo [d]isoxazol-6-yl)imidazolo[1,2-c]pyrimidin-7-yl)-2-fluorobenzonitrile], the IC50 came to 33.2 nM on LSD1 (setting [1]) and 12.8 nM in the experiment on NCI-H1417 cells (setting [2]).

As for `CS(=O)(=O)N1CCN(C(=O)c2cc(CN[C@@H]3C[C@H]3c3ccc(F)cc3)nc(-c3ccn4ccnc4c3)n2)CC1` [Example 232], the IC50 was 548 nM on LSD1 (setting [1]) and 209 nM in the experiment on NCI-H1417 cells (setting [2]).

Take `COc1ccc(C2CC2NCc2c(OC)cc(N3CCC(N)CC3)nc2-c2ccc(C#N)c(F)c2)cc1F` (stereo not drawn) [Example 252]: the IC50 at LSD1 (setting [1]) is 73.7 nM; with NCI-H1417 cells (NCI-H1417 cells, 7 days, CellTiter-Glo, read-out: NCI-H1417 proliferation inhibition IC50), more than 1000 nM.

For the compound `N#Cc1ccc(-c2nc(N3C4CCC3CC(N)C4)n3ccnc3c2-c2cc3nc[nH]c3cc2F)cc1F` (stereo not drawn) [Example 172, 4-(5-(3-amino-8-azabicyclo[3.2.1]octane-8-yl)-8-(6-fluoro-1H-benzo[d]imidazole-5-yl)imidazolo [1,2-c]pyrimidin-7-yl)-2-fluorobenzonitrile], the IC50 was 5 ± 4.1 nM at LSD1 (setting [1]) and 149 nM with NCI-H1417 cells (setting [2]).

Take `COc1ccc(-c2c(-c3ccc(C#N)c(F)c3)nc(N3CC4CCC(C3)C4N)n3ccnc23)cc1O` (stereo not drawn) [Example 161, 4-(5-(8-amino-3-azabicyclo[3. 2.1]octane-3-yl)-8-(3-hydroxy-4-methoxyphenyl)imidazolo[1,2-c]pyrimidin-7-yl)-2-fluorobenzonitrile hydrochloride]: the results for the IC50 on LSD1 (setting [1]) and in the experiment with NCI-H1417 cells (setting [2]) were 3.9 ± 0.2 nM and 8.37 nM, respectively.

For the compound `Cc1noc2cc(-c3c(-c4ccc(C#N)c(F)c4)nc(N4CCC(N)CC4)c4ncoc34)c(F)cc12` [Example 279, 4-(4-(4-aminopiperidin-1-yl)-7-(5-fluoro-3-methylbenzo[d]isoxazol-6-yl)oxazolo[4,5-c]pyridin-6-yl)-2-fluorobenzonitrile], the values for the IC50 at LSD1 (setting [1]) and in the experiment with NCI-H1417 cells (setting [2]) were 2.27 nM and 6.61 nM, respectively.

As to `COc1cc(-c2c(OC)cc(N3CCC(N)CC3)nc2-c2ccc(C#N)c(F)c2)ccc1O` [Example 97, 4-(6-(4-aminopiperidin-1-yl)-3-(4-hydroxy-4-methoxyphenyl)-4-methoxypyridin-2-yl)-2-fluorobenzonitrile], the IC50 at LSD1 (setting [1]) turned out to be 88.5 nM; in the experiment with NCI-H1417 cells (setting [2]), 185 nM.

`Cc1ccc(-c2c(-c3ccc(C#N)cc3)cc3c(N4CCC(N)C4)nccn23)cc1` (stereo not drawn) [Example 192, 4-(1-(3-aminopyrrolidin-1-yl)-6-(p-tolyl)pyrrolo [1,2-a]pyrazine-7-yl) benzonitrile hydrochloride]: the IC50 at LSD1 (setting [1]) came out at 10.6 nM; in the experiment with NCI-H1417 cells (setting [2]) it was 81 nM.

For `CS(=O)(=O)N1CCN(C(=O)c2cc(CCN[C@@H]3C[C@H]3c3ccc(F)cc3)cc(-c3ccc(-n4cccn4)cc3)n2)CC1` [Example 256, (6-(4-(1H-pyrazol-1-yl)phenyl)-4-(2-(((1R,2S)-2-(4-fluorophenyl)cyclopropyl)amino)ethyl)pyridin-2-yl) (4-(methylsulfonyl)piperazin-1-yl)methanone], the IC50 at LSD1 (setting [1]) is 71.3 nM; with NCI-H1417 cells (setting [2]), 10.8 nM.

Turning to `Cc1ccc(-c2cnc(N3CCC(N)CC3)c(C#N)c2-c2ccc(C#N)c(F)c2)cc1O` [Example 67, 2-(4-aminopiperidin-1-yl)-4-(4-cyano-3-fluorophenyl)-5-(3-hydroxy-4-methylphenyl) nicotinonitrile hydrochloride], the IC50 on LSD1 (setting [1]) amounted to 0.2 ± 0.1 nM; with NCI-H1417 cells (setting [2]), 0.2 nM.

`Cc1noc2cc(-c3c(-c4ccc(C#N)c(F)c4)nc(N4CCC(N)CC4)c4nc[nH]c34)c(F)cc12` [Example 272, 4-(4-(4-aminopiperidin-1-yl)-7-(5-fluoro-3-methylbenzo[d]isoxazol-6-yl)-1H-imidazolo[4,5-c]pyridin-6-yl)-2-fluorobenzonitrile]: the IC50 at LSD1 (setting [1]) is 1.8 ± 0.8 nM; with NCI-H1417 cells (setting [2]), 11 nM.

Take `CCOc1cc(N2CCC(N)CC2)nc(-c2ccc(C#N)c(F)c2)c1-c1ccc(OC)c(O)c1` [Example 103, 4-(6-(4-aminopiperidin-1-yl)-4-ethoxy-3-(3-hydroxy-4-methoxyphenyl)pyridin-2-yl)-2-fluorobe nzonitrile]: the IC50 came out at 0.6 ± 0.2 nM on LSD1 (read-out: Inhibition of enzymatic activity of LSD1 IC50) and 6.27 nM with NCI-H1417 cells (Homo sapiens, NCI-H1417, 168 h, read-out: NCI-H1417 proliferation inhibition IC50(nM)).

As to `Cc1noc2cc(-c3c(-c4ccc(C#N)c(F)c4)nc(N4CCC(N)CC4)c4c3cnn4C)c(F)cc12` [Example 286, 4-(7-(4-aminopiperidin-1-yl)-4-(5-fluoro-3-methylbenzo[d]isoxazol-6-yl)-1-methyl-1H-pyrazolo [3,4-c]pyridin-5-yl)-2-fluorobenzonitrile], the IC50 on LSD1 (setting [1]) came out at 3.5 nM; in the experiment on NCI-H1417 cells (setting [2]) it was 4.58 nM.

For the compound `N#Cc1ccc(-c2cc(C(=O)N3C4CCC3CC(N)C4)sc2-c2ccc3oc(=O)[nH]c3c2)cc1F` (stereo not drawn) [Example 214, 4-(5-(3-amino-8-azabicyclo [3.2.1]octan-8-carbonyl)-2-(2-carbonyl-2,3-dihydrobenzo[d]oxazol-5-yl)thiophen-3-yl)-2-fluoro benzonitrile hydrochloride], the IC50 on LSD1 (setting [1]) amounted to 0.47 ± 0.13 nM; in the experiment on NCI-H1417 cells (setting [2]), 493 nM.

As for `COc1ccc(-c2c(-c3ccc(C#N)c(F)c3)nc(N3CCC(N)CC3)n3c(C)cnc23)cc1O` [Example 187, 4-(5-(4-aminopiperidin-1-yl)-8-(3-hydroxy-4-methoxyphenyl)-3-methylimidazolo[1,2-c]pyrimidin-7-yl)-2-fluorobenzonitrile], the IC50 turned out to be 0.8 ± 0.1 nM at LSD1 (setting [1]) and 1.11 nM in the experiment on NCI-H1417 cells (setting [2]).

As for `COc1ccc(-c2c(-c3ccc(C#N)c(F)c3)nc(N3CC4CCC3CC4N)n3ccnc23)cc1O` (stereo not drawn) [Example 166, 4-(5-(5-amino-2-azabicyclo [2.2.2]octane-2-yl)-8-(3-hydroxy-4-methoxyphenyl)imidazolo[1,2-c]pyrimidin-7-yl)-2-fluorobenzonitrile hydrochloride], the IC50 at LSD1 (setting [1]) is 1 ± 0.5 nM; with NCI-H1417 cells (setting [2]), 2.39 nM.

In the case of `CS(=O)(=O)N1CCN(c2cc(CN[C@@H]3C[C@H]3c3ccc(F)cc3)nc(-c3ccc(C#N)cc3)n2)CC1` [Example 264, 4-(4-((((1R,2S)-2-(4-fluoro-phenyl)cyclopropyl)amino)methyl)-6-(4-(methylsulfonyl)piperazin-1-yl)pyrimidin-2-yl)benzonitrile], the IC50 is 87.6 nM on LSD1 (setting [1]) and 27.4 nM with NCI-H1417 cells (setting [2]).

For the compound `COc1ccc(-c2c(-c3ccc(C#N)c(O)c3)nc(N3C4CCC3CC(N)C4)n3ccnc23)cc1F` (stereo not drawn) [Example 185, 4-(5-(3-amino-8-azabicyclo[3.2.1]octane-8-yl)-8-(3-fluoro-4-methoxyphenyl)imidazolo[1,2-c]pyrimidin-7-yl)-2-hydroxybenzonitrile], the IC50 on LSD1 (setting [1]) worked out at 14.1 nM; in the experiment on NCI-H1417 cells (setting [2]), 160 nM.

As for `O=C(c1cc(CN[C@@H]2C[C@H]2c2ccc(F)cc2)nc(-c2cccnc2)n1)N1CCOCC1` [Example 240], the IC50 at LSD1 (setting [1]) was 770 nM; in the experiment on NCI-H1417 cells (setting [2]), 29.5 nM.

As to `Cc1ccc(-c2sc(CN3C4CCC3CC(N)C4)cc2-c2ccc(C#N)c(F)c2)c(F)c1` (stereo not drawn) [Example 7, 4-(5-((3-amino-8-azabicyclo[3.2.1]octane-8-yl)methyl)-2-(2-fluoro-4-methylphenyl)thiophen-3-yl)-2-fluorobenzonitrile trifluoroacetate], the IC50 against LSD1 turned out to be 0.4 ± 0.29 nM; in the experiment with NCI-H1417 cells (setting [2]), 46.4 nM.

On to `COc1ccc(-c2c(-c3ccc(C#N)c(F)c3)nc(N3CC4CCC(C3)C4N)n3ccnc23)cc1F` (stereo not drawn) [Example 162, 4-(5-(8-amino-3-azabicyclo [3.2.1]octyl-3-yl)-8-(3-fluoro-4-methoxyphenyl)imidazolo[1,2-c]pyrimidin-7-yl)-2-fluorobenzonitrile hydrochloride], for which the IC50 on LSD1 (setting [1]) came to 59.9 nM; in the experiment on NCI-H1417 cells (setting [2]), 11.7 nM.

With `COc1ccc(-c2c(O)cc(N3CCC(N)CC3)nc2-c2ccc(C#N)c(F)c2)cn1` [Example 22, 4-(6-(4-aminopiperidin-1-yl)-4-hydroxy-6′-methoxy-[3,3′-bipyridine]-2-yl)-2-fluorobenzonitrile], the IC50 at LSD1 (setting [1]) was determined as 9.03 nM; in the experiment with NCI-H1417 cells (setting [2]) it was 34.9 nM.

With `CC(C)(O)COc1ccc(-c2cnc(N3CCC(N)CC3)c(C#N)c2-c2ccc(C#N)c(F)c2)cc1O` [Example 86, hydrochloride], the IC50 on LSD1 (setting [1]) was 0.147 nM; in the experiment with NCI-H1417 cells (setting [2]), 0.63 nM.

Consider `COc1ccc(-c2c(O)cc(N3C4CCC3CC(N)C4)nc2-c2ccc(C#N)c(F)c2)cc1O` (stereo not drawn) [Example 37, 4-(6-(3-amino-8-azabicyclo[3.2.1]octane-8-yl)-4-hydroxy-3-(3-hydroxy-4-methoxyphenyl)pyridin-2-yl)-2-fluorobenzonitrile], for which the IC50 worked out at 15.1 nM at LSD1 (setting [1]) and 173 nM in the experiment on NCI-H1417 cells (setting [2]).

Regarding `Cc1noc2c(-c3sc(C(=O)N4C5CCC4CC(N)C5)cc3-c3ccc(C#N)c(F)c3)c(F)ccc12` (stereo not drawn) [Example 209, 4-(5-(3-amino-8-azabicyclo [3.2.1]octan-8-carbonyl)-2-(6-fluoro-3-methylbenzo[d]isoxazol-7-yl)thiophen-3-yl)-2-fluoro-benzonitrile hydrochloride], the IC50 on LSD1 (setting [1]) was determined as 0.507 nM; in the experiment with NCI-H1417 cells (setting [2]), 1.44 nM.
